Reference: ChEMBL document CHEMBL5137082, “Discovery of a Novel Vascular Disrupting Agent Inhibiting Tubulin Polymerization and HDACs with Potent Antitumor Effects” (J Med Chem, 2022)
Active and inactive are the calls of the source. The calls are words filed in the database; no cut-off is given here.

Assays:
HepG2 [1] = assay: Antiproliferative activity against human HepG2 cells assessed as inhibition of cell growth measured after 72 hrs by MTT assay; type: functional, cell-based; settings: HepG2, 72 h
PC-3 [2] = assay: Induction of apoptosis in human PC-3 cells assessed as mitochondrial membrane potential loss by measuring decrease in red fluorescence at 30 nM incubated for 48 hrs by JC1 staining based flow cytometry analysis (reference value: 93.48 +/- 0.15%); type: functional; parameters: scale not given: the % may be the effect or the level left
HepG2 [3] = assay: Induction of apoptosis in human HepG2 cells assessed as late apoptotic cells at 30 nM incubated for 48 hrs by Annexin-V/PI-staining based flow cytometry (reference value: 2.53 +/- 0.34%); type: functional
PC-3 [4] = assay: Induction of apoptosis in human PC-3 cells assessed as mitochondrial membrane potential loss by measuring decrease in […] fluorescence at 7.5 nM incubated for 48 hrs by JC1 staining based flow cytometry analysis (reference value: 93.48 +/- 0.15%); type: functional; parameters: scale not given: the % may be the effect or the level left
[5] = Toxicity in ICR mouse allografted with mouse H22 cells assessed as systolic blood pressure at 20 mg/kg, iv administered qd measured after 21 days; type: organism-based; settings: in vivo, 504 h, time 21 day
HepG2 [6] = assay: Induction of apoptosis in human HepG2 cells assessed as viable cells at 30 nM incubated for 48 hrs by Annexin-V/PI-staining based flow cytometry (reference value: 91.44 +/- 0.74%); type: functional; settings: read-out: Activity
HepG2 [7] = assay: Induction of apoptosis in human HepG2 cells assessed as viable cells at 15 nM incubated for 48 hrs by Annexin-V/PI-staining based flow cytometry (reference value: 91.44 +/- 0.74%); type: functional; settings: read-out: Activity
H22 [8] = assay: Antivascular activity against mouse H22 cells allografted in ICR mouse assessed as reduction in tumor microvessel density by measuring CD31-positive cells at 20 mg/kg, iv administered qd measured after 21 days by immunohistochemistry analysis; type: functional, organism-based; settings: time 21.0 day
H22 [9] = assay: Antitumor activity against mouse H22 cells allografted in ICR mouse assessed as reduction in tumor weight at 20 mg/kg, iv administered qd measured after 21 days; type: functional; parameters: scale not given: the % may be the effect or the level left; settings: time 21 day
HepG2 [10] = assay: Induction of cell cycle arrest in human HepG2 cells assessed as accumulation G1 phase at 15 nM incubated for 48 hrs by propidium iodide staining based flow cytometry analysis (reference value: 59.32 +/- 0.77%); type: functional
H22 [11] = assay: Antivascular activity against mouse H22 cells allografted in ICR mouse assessed as inhibition of blood vessel formation at 20 mg/kg, iv administered qd measured after 21 days by immunohistochemistry analysis; type: functional, organism-based; settings: time 21.0 day
H22 [12] = assay: Antiproliferative activity against mouse H22 cells assessed as inhibition of cell growth measured after 72 hrs by MTT assay; type: functional, cell-based; settings: H22, 72 h
HepG2 [13] = assay: Induction of cell cycle arrest in human HepG2 cells assessed as accumulation S phase at 30 nM incubated for 48 hrs by propidium iodide staining based flow cytometry analysis (reference value: 17.14 +/- 0.34%); type: functional
[14] = Metabolic stability in mouse liver microsomes assessed as metabolic bioavailability at 1 uM in presence of NADPH measured up to 60 mins by LC-MS/MS analysis; type: ADME, Microsome
Tubulin (Homo sapiens) [15] = target: T1, Tubulin (Homo sapiens) (UniProt P68371+Q9H4B7+P0DPH7+P68366+Q13509+Q71U36+P04350+Q3ZCM7+P07437+P68363+Q9BQE3+Q6PEY2+Q13885+Q9BVA1+Q9BUF5); assay: Induction of microtubule disruption in human HepG2 cells assessed as loss of cellular structure at 7.5 to 30 nM measured after 2 hrs by DAPI staining based immunofluorescence microscopic assay; type: cell-based; settings: dose 7.5-30 nM
HepG2 [16] = assay: Induction of cell cycle arrest in human HepG2 cells assessed as accumulation G2 phase at 15 nM incubated for 48 hrs by propidium iodide staining based flow cytometry analysis (reference value: 23.55 +/- 0.29%); type: functional
Histone deacetylase 8 = target: T2, Histone deacetylase 8 (Homo sapiens, UniProt Q9BY41); assay: Inhibition of HDAC8 in human HeLa cells using BOC-K(Ac)-AMC as substrate measured after 30 mins by fluorescence based microtiter plate reader assay; type: cell-based
T2 sequence (Q9BY41 whole entry): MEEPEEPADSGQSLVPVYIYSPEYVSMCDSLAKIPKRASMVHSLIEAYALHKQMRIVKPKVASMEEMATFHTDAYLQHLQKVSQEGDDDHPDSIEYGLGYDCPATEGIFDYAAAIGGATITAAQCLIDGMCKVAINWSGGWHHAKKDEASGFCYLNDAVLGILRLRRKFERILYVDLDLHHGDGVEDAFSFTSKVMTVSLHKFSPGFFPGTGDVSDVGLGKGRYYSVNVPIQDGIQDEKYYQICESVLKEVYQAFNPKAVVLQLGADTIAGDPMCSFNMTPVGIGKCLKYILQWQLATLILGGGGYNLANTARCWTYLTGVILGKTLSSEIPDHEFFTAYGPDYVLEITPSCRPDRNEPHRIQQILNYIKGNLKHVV

H22 [17] = assay: Antitumor activity against mouse H22 cells allografted in ICR mouse assessed as reduction in tumor volume growth rate at 20 mg/kg, iv administered qd for 21 days measured after 12 days; type: functional, organism-based; settings: time 21.0 day
Histone deacetylase 1 = Histone deacetylase 1 (Homo sapiens, UniProt Q13547); assay: Inhibition of HDAC1 in human HeLa cells using BOC-K(Ac)-AMC as substrate measured after 30 mins by fluorescence based microtiter plate reader assay; type: cell-based
Chain of Histone deacetylase 1 (Q13547 whole entry): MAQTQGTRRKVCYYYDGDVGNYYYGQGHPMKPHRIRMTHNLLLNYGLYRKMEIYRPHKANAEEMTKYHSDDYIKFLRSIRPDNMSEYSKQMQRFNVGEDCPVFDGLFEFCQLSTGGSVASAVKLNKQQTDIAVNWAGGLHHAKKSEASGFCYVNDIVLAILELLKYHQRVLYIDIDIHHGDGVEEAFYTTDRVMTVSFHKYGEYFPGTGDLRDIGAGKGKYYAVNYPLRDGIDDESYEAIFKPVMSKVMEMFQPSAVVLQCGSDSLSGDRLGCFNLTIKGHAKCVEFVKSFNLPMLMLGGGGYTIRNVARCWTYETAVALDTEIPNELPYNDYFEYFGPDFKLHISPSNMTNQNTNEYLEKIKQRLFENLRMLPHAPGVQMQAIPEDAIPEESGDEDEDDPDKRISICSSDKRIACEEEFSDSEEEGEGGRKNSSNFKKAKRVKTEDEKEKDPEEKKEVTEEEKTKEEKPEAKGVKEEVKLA

HepG2 [18] = assay: Induction of cell cycle arrest in human HepG2 cells assessed as accumulation G2 phase at 30 nM incubated for 48 hrs by propidium iodide staining based flow cytometry analysis (reference value: 23.55 +/- 0.29%); type: functional
[19] = Toxicity in ICR mouse allografted with mouse H22 cells assessed as pathological changes in kidney at 20 mg/kg, iv administered qd measured after 21 days by H and E staining based analysis; type: organism-based; settings: in vivo, 504 h, time 21 day
[20] = Metabolic stability in mouse liver microsomes assessed as half life at 1 uM in presence of NADPH measured up to 60 mins by LC-MS/MS analysis; type: ADME, Microsome
HepG2 [21] = assay: Induction of apoptosis in human HepG2 cells assessed as early apoptotic cells at 7.5 nM incubated for 48 hrs by Annexin-V/PI-staining based flow cytometry (reference value: 4.61 +/- 0.46%); type: functional
[22] = Metabolic stability in mouse assessed as intrinsic clearance; type: ADME; settings: 1 h, 1 µM, time < 60 min
[23] = Cardiotoxicity in ICR mouse allografted with mouse H22 cells assessed as effect on T wave at 20 mg/kg, iv administered qd measured after 21 days by ECG analysis; type: toxicity, organism-based; settings: in vivo, 504 h, time 21 day
[24] = Induction of apoptosis in ICR mouse cardiac tissue at 20 mg/kg, iv administered qd measured after 21 days by TUNEL assay; type: toxicity, organism-based; settings: in vivo, 504 h, time 21 day
Tubulin (Homo sapiens) [25] = target: T1, Tubulin (Homo sapiens); assay: Disruption of microtubule network in human HepG2 cells at 7.5 to 30 nM measured after 2 hrs by DAPI staining based immunofluorescence microscopic assay; type: cell-based; settings: dose 7.5-30 nM
[26] = Metabolic stability in mouse plasma assessed as compound remaining at 40 uM measured after 0.5 hrs by LC-MS/MS analysis (reference value: 100%); type: ADME, cell-free
HepG2 [27] = assay: Induction of apoptosis in human HepG2 cells assessed as late apoptotic cells at 15 nM incubated for 48 hrs by Annexin-V/PI-staining based flow cytometry (reference value: 2.53 +/- 0.34%); type: functional

IC50 (HepG2 [1]): 29 nM
Fh at 1 h, 1 µM [14]: 51.6%
Activity (Tubulin (Homo sapiens) [15]): Active
IC50 (Histone deacetylase 8): 2120 nM
IC50 (Histone deacetylase 1): 115 nM
half-life at 1 µM [20]: 50.3 min
CL [22]: 2.82 mL/min
Activity (Tubulin (Homo sapiens) [25]): Active
Stability [26]: 59%
SMILES: COc1ccc(CNC(=O)c2cc(F)ccc2N2CCOCC2)cc1/C=C/C(=O)NO
Activity (PC-3 [2]): 49.39%
Activity (HepG2 [3]): 15.68%
Activity (PC-3 [4]): 76.73%
Activity [5]: Non-Toxic
viability at 0.03 µM (HepG2 [6]): 46.6%
viability at 0.015 µM (HepG2 [7]): 65.7%
Activity (H22 [8]): Active
Activity (H22 [9]): 83%
Activity (HepG2 [10]): 49.96%
Activity (H22 [11]): Active
IC50 (H22 [12]): 26 nM
Activity (HepG2 [13]): 23.58%
Activity (HepG2 [16]): 26.97%
Activity (H22 [17]): Active
Activity (HepG2 [18]): 33.09%
Activity [19]: Non-Toxic
Activity (HepG2 [21]): 20.15%
Activity [23]: Non-Toxic
Activity [24]: Non-Toxic
Activity (HepG2 [27]): 6.36%
